For one compound, Kd results are on record in publication PMC9405973, “Altered Conformational Landscape upon Sensing Guanine Nucleotides in a Disease Mutant of Elongation Factor-like 1 (EFL1) GTPase” (Biomolecules, 2022).

In the assay the target is T1, Efl1 mutant T33A in complex with Sdo1 and the 60S subunits (Saccharomyces cerevisiae, UniProt P53893, T33A).
T1 construct: made in house; host or cells: Efl1: Saccharomyces cerevisiae; Sdo1: Escherichia coli C41; 60S subunits purified from S. cerevisiae strain JD1370
T1 sequence (P53893 1-1110 T33A): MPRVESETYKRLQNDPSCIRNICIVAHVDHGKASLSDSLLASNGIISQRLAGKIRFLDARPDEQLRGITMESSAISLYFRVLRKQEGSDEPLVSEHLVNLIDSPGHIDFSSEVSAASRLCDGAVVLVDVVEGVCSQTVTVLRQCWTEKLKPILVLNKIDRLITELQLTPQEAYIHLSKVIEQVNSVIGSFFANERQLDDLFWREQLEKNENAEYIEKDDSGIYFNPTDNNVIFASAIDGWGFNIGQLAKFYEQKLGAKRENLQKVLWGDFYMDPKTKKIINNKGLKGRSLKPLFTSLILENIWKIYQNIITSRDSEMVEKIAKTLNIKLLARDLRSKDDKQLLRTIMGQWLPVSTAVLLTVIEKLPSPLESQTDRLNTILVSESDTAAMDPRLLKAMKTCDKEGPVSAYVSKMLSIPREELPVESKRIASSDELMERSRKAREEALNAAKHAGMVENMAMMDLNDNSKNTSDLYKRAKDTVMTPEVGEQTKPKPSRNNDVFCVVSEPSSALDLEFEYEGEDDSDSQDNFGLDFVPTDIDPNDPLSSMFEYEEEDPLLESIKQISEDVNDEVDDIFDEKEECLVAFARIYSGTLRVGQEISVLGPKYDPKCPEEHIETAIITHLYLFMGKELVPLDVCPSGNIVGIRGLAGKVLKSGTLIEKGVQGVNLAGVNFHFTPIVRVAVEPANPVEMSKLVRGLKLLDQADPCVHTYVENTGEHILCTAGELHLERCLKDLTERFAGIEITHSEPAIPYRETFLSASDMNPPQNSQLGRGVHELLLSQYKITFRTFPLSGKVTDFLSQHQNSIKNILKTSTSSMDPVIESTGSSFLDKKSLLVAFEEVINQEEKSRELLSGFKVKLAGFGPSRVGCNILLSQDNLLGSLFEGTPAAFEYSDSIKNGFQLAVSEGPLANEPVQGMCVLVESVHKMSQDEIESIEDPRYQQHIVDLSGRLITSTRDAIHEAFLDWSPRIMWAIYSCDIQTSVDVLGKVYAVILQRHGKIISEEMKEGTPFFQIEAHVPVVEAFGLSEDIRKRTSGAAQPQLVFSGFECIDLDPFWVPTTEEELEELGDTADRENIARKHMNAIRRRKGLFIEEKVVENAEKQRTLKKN
T1 sequence (Q07953 1-250 partner): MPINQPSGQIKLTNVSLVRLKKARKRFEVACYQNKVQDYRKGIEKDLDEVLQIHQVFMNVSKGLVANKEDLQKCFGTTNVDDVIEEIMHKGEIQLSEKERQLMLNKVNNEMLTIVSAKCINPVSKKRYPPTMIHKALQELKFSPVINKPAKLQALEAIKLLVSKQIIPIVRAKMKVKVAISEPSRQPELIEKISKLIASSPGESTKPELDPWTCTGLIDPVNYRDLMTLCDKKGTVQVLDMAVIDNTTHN
Nature of the assay: Steady state fluorescence binding of mant-GTP to Efl1 T33A in complex with Sdo1 and 60S subunits. As to conditions: 25 °C, one-binding-site model; read-out: dissociation constant (Kd). Here is the method: We measured the binding of different Efl1 constructs present in complex with Sdo1 and 60S subunits to the fluorescence GTP analogue, mant-GTP, by following the increase in the fluorescence signal after excitation at 355 nm. Fluorescence intensities were plotted as a function of increasing nucleotide concentrations, and the dissociation constant (Kd) was calculated by fitting the data to a one-binding-site model (Supplementary Figure S1B).
Hydrolysis of GTP was measured using the Enzchek Phosphate Assay kit (Molecular Probes) as described by Webb. Standard reactions consisted of 100 µL containing 6 µM of Efl1 R1086Q and Efl1 L910K, 0.3 mM MESG, 1.0 U purine nucleoside phosphorylase (PNP) and the indicated amounts of GTP. […]
Reactions were initiated and the GTPase was added after 3 min. Time courses were followed by recording the change in absorbance at 360 nm in a Cary 60 UV -Vis spectrophotometer (Agilent Technologies). Background absorbance was recorded prior to the addition of the GTPase and subtracted from the sample signals. The slope of the measured time courses corresponded to the GTP hydrolysis rate. […] Data were analysed by nonlinear regression to the M ichaelis-Menten equation with the program Origin Version 5.0 (OriginLab, Co., Northampton, MA). […]
Steady state fluorescence measurements […]
Maximum emission at 440 nm was replotted as a function of nucleotide concentration and analysed

For the compound `CNc1ccccc1C(=O)O[C@H]1[C@@H](O)[C@H](n2cnc3c(=O)[nH]c(N)nc32)O[C@@H]1COP(=O)(O)OP(=O)(O)OP(=O)(O)O` [mant-GTP], the equilibrium dissociation constant (Kd) was found to be 24 µM.
